Experimental data published in patent publication US11584747B2, “Substituted pyridopyrimidinonyl compounds useful as T cell activators” (BRISTOL-MYERS SQUIBB COMPANY, priority 2019, dated 2023).
Where two headings read alike, the source gives them in different places.

Tests used:
[1] = target: human DGKζ (Homo sapiens (Human), UniProt Q13574); experiment: DGKζ LIPGLO assay (extruded liposome substrate, ADP-Glo luminescence); format: biochemical; conditions: liposome (LIPGLO) assay; read-out: DGK zeta (liposome assay) IC50
[2] = target: human DGKα (Homo sapiens (Human), UniProt P23743); experiment: DGKα ADPGLO assay (detergent/lipid micelle substrate); format: biochemical; conditions: ADPGLO assay; read-out: DGK alpha ADPGLO IC50
Method: DGK Alpha ADPGLO (Truncated) IC50 (uM)
The detergent/lipid micelle was prepared by combining 15 g phosphatidylserine (Avanti 840035P) and 1 g diacylglycerol (8008110) and dissolving into 150 mL chloroform in a 2 L round bottom flask. Chloroform was removed under high vacuum by rotary evaporation. […] The lipid/detergent solution was split into 5 mL aliquots and stored at −80° C.

[3] = test system: human venous whole blood (IFN-γ); experiment: Human whole blood IFN-γ assay; format: cell-based; conditions: human whole blood, anti-CD3 plus anti-CD28 stimulation, 24 hours, read-out: IFN-γ Whole Blood EC50
Method: Human venous whole blood (22.5 μL per well), obtained from healthy donors, was pre-treated with compounds for one hour at 37° C. in a humidified 95% air/5% CO2 incubator. The blood was stimulated with 2.5 μL anti-human CD3 and anti-CD28 mAb at a final concentration of 1 μg/mL each for 24 hours at 37° C. IFN-γ in the supernatants was measured using AlphLISA kit (Cat #AL217).

[4] = test system: whole blood (pERK); experiment: pERK Whole Blood; format: cell-based

human DGKζ, sequence (Q13574 other isoform, or with tags, fused parts or gaps): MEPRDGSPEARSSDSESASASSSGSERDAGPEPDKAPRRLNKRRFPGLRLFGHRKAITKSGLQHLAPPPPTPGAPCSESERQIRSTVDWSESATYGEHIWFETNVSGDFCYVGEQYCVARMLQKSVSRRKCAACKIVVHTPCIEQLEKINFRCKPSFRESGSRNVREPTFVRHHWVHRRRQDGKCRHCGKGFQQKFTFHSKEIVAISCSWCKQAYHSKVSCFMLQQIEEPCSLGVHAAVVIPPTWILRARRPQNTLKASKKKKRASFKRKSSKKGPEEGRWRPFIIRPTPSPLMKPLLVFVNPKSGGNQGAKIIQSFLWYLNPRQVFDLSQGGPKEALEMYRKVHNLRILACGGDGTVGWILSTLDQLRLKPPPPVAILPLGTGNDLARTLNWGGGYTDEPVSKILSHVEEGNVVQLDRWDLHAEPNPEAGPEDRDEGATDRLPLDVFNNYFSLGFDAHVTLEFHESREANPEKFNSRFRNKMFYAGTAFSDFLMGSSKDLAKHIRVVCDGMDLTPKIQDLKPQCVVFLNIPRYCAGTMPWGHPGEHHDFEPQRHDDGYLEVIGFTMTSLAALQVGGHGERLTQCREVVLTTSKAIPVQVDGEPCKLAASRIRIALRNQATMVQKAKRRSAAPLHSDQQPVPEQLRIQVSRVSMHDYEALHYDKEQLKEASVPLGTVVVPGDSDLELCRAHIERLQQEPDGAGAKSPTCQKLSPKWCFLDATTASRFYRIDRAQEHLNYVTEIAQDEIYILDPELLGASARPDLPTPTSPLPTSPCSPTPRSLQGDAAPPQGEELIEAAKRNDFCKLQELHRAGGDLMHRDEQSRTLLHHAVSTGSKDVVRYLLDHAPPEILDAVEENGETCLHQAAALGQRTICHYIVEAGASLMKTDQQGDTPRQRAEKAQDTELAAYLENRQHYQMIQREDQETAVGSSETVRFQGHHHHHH
human DGKα, sequence (P23743 whole entry, looked up, the tested form may be a part): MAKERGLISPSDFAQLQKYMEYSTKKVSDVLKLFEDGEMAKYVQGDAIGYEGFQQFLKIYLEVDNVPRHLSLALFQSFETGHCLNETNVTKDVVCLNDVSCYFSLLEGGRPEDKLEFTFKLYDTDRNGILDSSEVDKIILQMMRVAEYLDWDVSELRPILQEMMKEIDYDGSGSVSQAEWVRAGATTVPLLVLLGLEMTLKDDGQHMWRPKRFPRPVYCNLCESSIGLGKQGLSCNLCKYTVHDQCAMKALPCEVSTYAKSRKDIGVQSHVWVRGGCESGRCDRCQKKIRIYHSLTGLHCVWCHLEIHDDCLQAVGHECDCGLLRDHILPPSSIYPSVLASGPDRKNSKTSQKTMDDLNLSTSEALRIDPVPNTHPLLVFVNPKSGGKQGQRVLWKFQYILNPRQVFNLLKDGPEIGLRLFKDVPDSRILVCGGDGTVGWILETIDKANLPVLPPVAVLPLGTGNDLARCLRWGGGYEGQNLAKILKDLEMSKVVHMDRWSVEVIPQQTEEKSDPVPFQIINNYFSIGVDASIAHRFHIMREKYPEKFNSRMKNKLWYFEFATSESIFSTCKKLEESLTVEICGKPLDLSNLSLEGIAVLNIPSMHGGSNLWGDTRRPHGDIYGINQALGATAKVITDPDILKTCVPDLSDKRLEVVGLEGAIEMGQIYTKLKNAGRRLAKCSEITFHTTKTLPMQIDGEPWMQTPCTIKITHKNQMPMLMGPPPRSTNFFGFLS

Compound	IC50 [1] [nM]	IC50 [2] [nM]	EC50 [3] [nM]	EC50 [4] [nM]	EC50 ([3]; Homo sapiens, 24 h) [nM]
CCC(c1ccc(OCC2CC2)cc1)N1C[C@H](C)N(c2nc(=O)n(C)c3ccc(C#N)nc23)C[C@H]1CC (stereo partly drawn) [Example 308, 4-((2S,5R)-4-(1-(4-(cyclopropylmethoxy)phenyl)propyl)-5-ethyl-2-methylpiperazin-1-yl)-1-methyl-2-oxo-1,2-dihydropyrido[3,2-d]pyrimidine-6-carbonitrile]	39	62	34	890	
CC(c1ccc(CN2CCC(F)(F)CC2)cc1)N1C[C@H](C)N(c2nc(=O)n(C)c3ccc(C#N)nc23)C[C@H]1C (stereo partly drawn) [Example 390, 4-((2S,5R)-4-(1-(4-((4,4-difluoropiperidin-1-yl)methyl)phenyl)ethyl)-2,5-dimethylpiperazin-1-yl)-1-methyl-2-oxo-1,2-dihydropyrido[3,2-d]pyrimidine-6-carbonitrile]	180	97	40	20000	
CC[C@H]1CN(C(c2ccc(F)cc2)c2noc(C3CC3)n2)[C@H](CC)CN1c1nc(=O)n(C)c2ccc(C#N)nc12 (single isomer, unassigned) [Example 371]	100	13		3320	190
CCC(c1ccc(OC(C)C)cc1)N1C[C@H](C)N(c2nc(=O)n(C)c3ccc(C#N)nc23)C[C@H]1CC (stereo partly drawn) [Example 334, 4-((2 S,5R)-5-ethyl-4-(1-(4-isopropoxyphenyl)propyl)-2-methylpiperazin-1-yl)-1-methyl-2-oxo-1,2-dihydropyrido[3,2-d]pyrimidine-6-carbonitrile]	530	460	730	20000	
CCC(c1ccc(OCC2COC2)cc1)N1C[C@H](C)N(c2nc(=O)n(C)c3ccc(C#N)nc23)C[C@H]1CC (stereo partly drawn) [Example 342, 4-((2S,5R)-5-ethyl-2-methyl-4-(1-(4-(oxetan-3-ylmethoxy)phenyl)propyl)piperazin-1-yl)-1-methyl-2-oxo-1,2-dihydropyrido[3,2-d]pyrimidine-6-carbonitrile]	1200	1090		7930	
CCC(c1ccc(C(F)(F)F)cc1)N1C[C@H](CC)N(c2nc(=O)[nH]c3ccc(C#N)nc23)C[C@H]1CC (stereo partly drawn) [Example 415, 4-((2S,5R)-2,5-diethyl-4-(1-(4-(trifluoromethyl)phenyl)propyl)piperazin-1-yl)-2-oxo-1,2-dihydropyrido[3,2-d]pyrimidine-6-carbonitrile]	61900	3310		3440	
CC[C@@H]1CN(c2nc(=O)n(C)c3ccc(C#N)nc23)[C@@H](C)CN1C(C)c1ccc(C2CCOCC2)cc1 (stereo partly drawn) [Example 329, 4-((2 S,5R)-5-ethyl-2-methyl-4-(1-(4-(tetrahydro-2H-pyran-4-yl)phenyl)ethyl)piperazin-1-yl)-1-methyl-2-oxo-1,2-dihydropyrido[3,2-d]pyrimidine-6-carbonitrile]	740	5290		1560	
CCC(c1ccc(F)c(F)c1)N1C[C@H](C)N(c2nc(=O)n(C)c3ccc(C#N)nc23)C[C@H]1CC (stereo partly drawn) [Example 319, 4-((2S,5R)-4-(1-(3,4-difluorophenyl)propyl)-5-ethyl-2-methylpiperazin-1-yl)-1-methyl-2-oxo-1,2-dihydropyrido[3,2-d]pyrimidine-6-carbonitrile]	22	52		130	
CC[C@@H]1CN(c2nc(=O)n(C)c3ccc(C#N)nc23)[C@@H](C)CN1C(c1ccc(OC(C)C)cc1)C(C)C (stereo partly drawn) [Example 324, 4-((2S,5R)-5-ethyl-4-(1-(4-isopropoxyphenyl)-2-methylpropyl)-2-methylpiperazin-1-yl)-1-methyl-2-oxo-1,2-dihydropyrido[3,2-d]pyrimidine-6-carbonitrile]	200	850		4210	
CCC(N1C[C@H](C)N(c2nc(=O)n(C)c3ccc(C#N)nc23)C[C@H]1C)C12CC(C(F)(F)F)(C1)C2 (single isomer, unassigned) [Example 449]	4080	7410		20000	
CC[C@@H]1CN(c2nc(=O)n(C)c3ccc(C#N)nc23)[C@@H](C)CN1C(C)c1ccc(C(F)(F)F)c(C#N)c1 (single isomer, unassigned) [Example 357]	1560	2080		3780	
COC[C@H]1CN(C(C)c2ccc(C(F)(F)F)cc2)[C@H](C)CN1c1nc(=O)n(C)c2ccc(C#N)nc12 (single isomer, unassigned) [Example 409]	1080	72		20000	
CCC(c1ccc(OCC2COC2)cc1)N1C[C@H](C)N(c2nc(=O)n(C)c3ccc(C#N)nc23)C[C@H]1CC (stereo partly drawn) [Example 341, 4-((2S,5R)-5-ethyl-2-methyl-4-(1-(4-(oxetan-3-ylmethoxy)phenyl)propyl)piperazin-1-yl)-1-methyl-2-oxo-1,2-dihydropyrido[3,2-d]pyrimidine-6-carbonitrile]	130	61		2980	
CCC(c1ccc(C(F)(F)F)cc1)N1C[C@H](C)N(c2nc(=O)n(C)c3ccc(C#N)nc23)C[C@H]1COC (single isomer, unassigned) [Example 399]	700	160		20000	
CCC(c1ccc(OCCC2CC2)cc1)N1C[C@H](C)N(c2nc(=O)n(C)c3ccc(C#N)nc23)C[C@H]1CC (stereo partly drawn) [Example 339, 4-((2S,5R)-4-(1-(4-(2-cyclopropylethoxy)phenyl)propyl)-5-ethyl-2-methylpiperazin-1-yl)-1-methyl-2-oxo-1,2-dihydropyrido[3,2-d]pyrimidine-6-carbonitrile]	79	75		280	
CCC(c1c(F)cc(OCC2CC2)cc1F)N1C[C@H](C)N(c2nc(=O)n(C)c3ccc(C#N)nc23)C[C@H]1CC (stereo partly drawn) [Example 328, 4-((2S,5R)-4-(1-(4-(cyclopropylmethoxy)-2,6-difluorophenyl)propyl)-5-ethyl-2-methylpiperazin-1-yl)-1-methyl-2-oxo-1,2-dihydropyrido[3,2-d]pyrimidine-6-carbonitrile]	2230	2970		20000	
CCC(c1ccc(OCC2CCOCC2)cc1)N1C[C@H](C)N(c2nc(=O)n(C)c3ccc(C#N)nc23)C[C@H]1CC (stereo partly drawn) [Example 338, 4-((2S,5R)-5-ethyl-2-methyl-4-(1-(4-((tetrahydro-2H-pyran-4-yl)methoxy)phenyl)propyl)piperazin-1-yl)-1-methyl-2-oxo-1,2-dihydropyrido[3,2-d]pyrimidine-6-carbonitrile]	1310	910		20000	
CC[C@@H]1CN(c2nc(=O)n(C)c3ccc(C#N)nc23)[C@@H](C)CN1C(c1ccc(OC)cc1)C(C)C (stereo partly drawn) [Example 313, 4-((2S,5R)-5-ethyl-4-(1-(4-methoxyphenyl)-2-methylpropyl)-2-methylpiperazin-1-yl)-1-methyl-2-oxo-1,2-dihydropyrido[3,2-d]pyrimidine-6-carbonitrile]	650	230		57	
CCC1CN(c2nc(=O)n(C)c3ccc(C#N)nc23)[C@@H](C)CN1C(C)c1ccc(C(F)(F)F)c(CN2CCOCC2)c1 (single isomer, unassigned) [Example 350]	120	180		3360	
CC(c1ccc(C(F)(F)F)cc1)N1C[C@H](CO)N(c2nc(=O)n(C)c3ccc(C#N)nc23)C[C@H]1C (single isomer, unassigned) [Example 406]	81100	1960		7130	
CC[C@@H]1CN(c2nc(=O)n(C)c3ccc(C(F)F)nc23)[C@@H](C)CN1C(C)c1ccc(C(F)(F)F)cc1 (stereo partly drawn) [Example 441, 6-(difluoromethyl)-4-((2S,5R)-5-ethyl-2-methyl-4-(1-(4-(trifluoromethyl)phenyl)ethyl)piperazin-1-yl)-1-methylpyrido[3,2-d]pyrimidin-2(1H)-one]	26900	190		700	
CCC(c1ccc(C(C)(C)C#N)cc1)N1C[C@H](C)N(c2nc(=O)n(C)c3ccc(C#N)nc23)C[C@H]1CC (stereo partly drawn) [Example 318, 4-((2S,5R)-4-(1-(4-(2-cyanopropan-2-yl)phenyl)propyl)-5-ethyl-2-methylpiperazin-1-yl)-1-methyl-2-oxo-1,2-dihydropyrido[3,2-d]pyrimidine-6-carbonitrile]	1570	620		3070	
CC[C@@H]1CN(c2nc(=O)n(C)c3ccc(C#N)nc23)[C@@H](C)CN1C(c1nc(C2CC2)no1)C(C)C (stereo partly drawn) [Example 365, 4-((2S,5R)-4-(1-(3-cyclopropyl-1,2,4-oxadiazol-5-yl)-2-methylpropyl)-5-ethyl-2-methylpiperazin-1-yl)-1-methyl-2-oxo-1,2-dihydropyrido[3,2-d]pyrimidine-6-carbonitrile]	21	16		4410	
CCC(c1ccc(OCc2nccs2)cc1)N1C[C@H](C)N(c2nc(=O)n(C)c3ccc(C#N)nc23)C[C@H]1CC (stereo partly drawn) [Example 348, 4-((2S,5R)-5-ethyl-2-methyl-4-(1-(4-(thiazol-2-ylmethoxy)phenyl)propyl)piperazin-1-yl)-1-methyl-2-oxo-1,2-dihydropyrido[3,2-d]pyrimidine-6-carbonitrile]	45	61		1950	
